# Publication PMC7179653 (Antimicrobial Agents and Chemotherapy, 2020)
# Assay: SAD study: safety and tolerability (TEAEs)
# Format: in vivo, human
# Conditions: for TEAE: Abdominal pain / TEAE: Application site rash / TEAE: Chest discomfort / TEAE: Cough / TEAE: Fatigue / TEAE: Feeling hot / TEAE: Headache / TEAE: Nasal congestion / TEAE: Rhinitis / TEAE: Sinus tachycardia / ≥1 TEAE / ≥1 drug-related TEAE / ≥1 serious TEAE / ≥1 severe TEAE: n = 6
# Method: The two studies were randomized, double-blind, placebo-controlled studies that enrolled participants into sequential treatment cohorts using a 3:1 active treatment-to-placebo randomization ratio.
# A sentinel dosing strategy was employed in both studies. […] In all cohorts, escalation to the next dose occurred after a safety review of the previous cohort. In the MAD study, sentinel dosing was performed in part 3, wherein participants were evaluated for safety up to 24 h after administration of the first drug combination (or placebo) on day 3, prior to enrolling additional participants.
# Safety assessments included monitoring of AEs, laboratory safety tests (hematology, serum chemistry, and urinalysis), 12-lead ECG (discrete recordings and 24-h Holter recording), and vital signs (blood pressure, pulse rate, and body temperature). In the SAD study, safety assessments were performed predose at screening, at day 1, postdose periodically on days 1, 2, and 7 (follow-up), and at early withdrawal, if relevant. Blood samples for pharmacokinetic profiling in the SAD study were collected on day 1 before the morning infusion and 0.5, 1, 1.5, 2, 3, 4, 6, 8, 12, and 24 h postinfusion start. In the MAD study, safety assessments were done predose at screening, at day 2, postdose periodically on days 1, 2, 4, 7, and 8, on days 13 to 15 (follow-up), and at early withdrawal, if relevant. In the MAD study, blood samples were collected on days 1 and 9 prior to the morning infusion and 0.5, 1, 1.5, 2, 3, 4, 6, 8, and 12 h (on day 9 only) postinfusion start. On all other days, a single predose sample was collected for pharmacokinetic evaluation prior to the morning infusion. Blood was collected into lithium-heparin tubes and stored at a nominal –80°C temperature until analysis.
smiles,measurement,setting,value
NCCONC(=O)[C@@H]1CC[C@@H]2CN1C(=O)N2OS(=O)(=O)O [Nacubactam],TEAE: Abdominal pain,"SAD, 50 mg",0 n/E
same,TEAE: Application site rash,"SAD, 50 mg",0 n/E
same,TEAE: Chest discomfort,"SAD, 50 mg",1/1
same,TEAE: Cough,"SAD, 50 mg",0 n/E
same,TEAE: Fatigue,"SAD, 50 mg",1/1
same,TEAE: Feeling hot,"SAD, 50 mg",0 n/E
same,TEAE: Headache,"SAD, 50 mg",0 n/E
same,TEAE: Nasal congestion,"SAD, 50 mg",1/1
same,TEAE: Rhinitis,"SAD, 50 mg",0 n/E
same,TEAE: Sinus tachycardia,"SAD, 50 mg",0 n/E
same,≥1 TEAE,"SAD, 50 mg",2/3
same,≥1 drug-related TEAE,"SAD, 50 mg",0 n/E
same,≥1 serious TEAE,"SAD, 50 mg",0 n
same,≥1 severe TEAE,"SAD, 50 mg",0 n
same,TEAE: Abdominal pain,"SAD, 150 mg",0 n/E
same,TEAE: Application site rash,"SAD, 150 mg",0 n/E
same,TEAE: Chest discomfort,"SAD, 150 mg",0 n/E
same,TEAE: Cough,"SAD, 150 mg",1/1
same,TEAE: Fatigue,"SAD, 150 mg",0 n/E
same,TEAE: Feeling hot,"SAD, 150 mg",1/1
same,TEAE: Headache,"SAD, 150 mg",0 n/E
same,TEAE: Nasal congestion,"SAD, 150 mg",0 n/E
same,TEAE: Rhinitis,"SAD, 150 mg",0 n/E
same,TEAE: Sinus tachycardia,"SAD, 150 mg",1/1
same,≥1 TEAE,"SAD, 150 mg",1/3
same,≥1 drug-related TEAE,"SAD, 150 mg",0 n/E
same,≥1 serious TEAE,"SAD, 150 mg",0 n
same,≥1 severe TEAE,"SAD, 150 mg",0 n
same,TEAE: Abdominal pain,"SAD, 500 mg",0 n/E
same,TEAE: Application site rash,"SAD, 500 mg",0 n/E
same,TEAE: Chest discomfort,"SAD, 500 mg",0 n/E
same,TEAE: Cough,"SAD, 500 mg",0 n/E
same,TEAE: Fatigue,"SAD, 500 mg",0 n/E
same,TEAE: Feeling hot,"SAD, 500 mg",0 n/E
same,TEAE: Headache,"SAD, 500 mg",1/1
same,TEAE: Nasal congestion,"SAD, 500 mg",0 n/E
same,TEAE: Rhinitis,"SAD, 500 mg",1/1
same,TEAE: Sinus tachycardia,"SAD, 500 mg",0 n/E
same,≥1 TEAE,"SAD, 500 mg",2/2
same,≥1 drug-related TEAE,"SAD, 500 mg",0 n/E
same,≥1 serious TEAE,"SAD, 500 mg",0 n
same,≥1 severe TEAE,"SAD, 500 mg",0 n
same,TEAE: Abdominal pain,"SAD, 1,000 mg",1/1
same,TEAE: Application site rash,"SAD, 1,000 mg",0 n/E
same,TEAE: Chest discomfort,"SAD, 1,000 mg",0 n/E
same,TEAE: Cough,"SAD, 1,000 mg",0 n/E
same,TEAE: Fatigue,"SAD, 1,000 mg",1/1
same,TEAE: Feeling hot,"SAD, 1,000 mg",0 n/E
same,TEAE: Headache,"SAD, 1,000 mg",0 n/E
same,TEAE: Nasal congestion,"SAD, 1,000 mg",0 n/E
same,TEAE: Rhinitis,"SAD, 1,000 mg",0 n/E
same,TEAE: Sinus tachycardia,"SAD, 1,000 mg",0 n/E
same,≥1 TEAE,"SAD, 1,000 mg",2/2
same,≥1 drug-related TEAE,"SAD, 1,000 mg",0 n/E
same,≥1 serious TEAE,"SAD, 1,000 mg",0 n
same,≥1 severe TEAE,"SAD, 1,000 mg",0 n
same,TEAE: Abdominal pain,"SAD, 2,000 mg",0 n/E
same,TEAE: Application site rash,"SAD, 2,000 mg",0 n/E
same,TEAE: Chest discomfort,"SAD, 2,000 mg",0 n/E
same,TEAE: Cough,"SAD, 2,000 mg",0 n/E
same,TEAE: Fatigue,"SAD, 2,000 mg",0 n/E
same,TEAE: Feeling hot,"SAD, 2,000 mg",0 n/E
same,TEAE: Headache,"SAD, 2,000 mg",1/1
same,TEAE: Nasal congestion,"SAD, 2,000 mg",0 n/E
same,TEAE: Rhinitis,"SAD, 2,000 mg",0 n/E
same,TEAE: Sinus tachycardia,"SAD, 2,000 mg",0 n/E
same,≥1 TEAE,"SAD, 2,000 mg",1/1
same,≥1 drug-related TEAE,"SAD, 2,000 mg",1/1
same,≥1 serious TEAE,"SAD, 2,000 mg",0 n
same,≥1 severe TEAE,"SAD, 2,000 mg",0 n
same,total number of AEs,"SAD, all nacubactam doses, 30 participants",11
same,participants reporting one or more AEs,"SAD, all nacubactam doses, eight of the 30 participants",26.7%
